Test results as given in PubChem BioAssay AID2060889 (Molecular Pharmacology Branch, DTP, NCI, 2025).

Tested on: LG0567-F671-PDC complex spheroids viability
Test: Anticancer human tumor LG0567-F671-PDC patient-derived lung adenocarcinoma cell line growth inhibition [RAS]
Settings: for IC50: curve of first compound; for viability, T/C: stronger effect = lower value
Outline: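 Multi-cell-type spheroids: tumor cells plus HUVEC endothelial cells and mesenchymal stem cells. RAS-pathway inhibitors were combined with targeted agents, each dosed in half-log steps down from clinical Cmax, or from 10 microM when Cmax was unknown.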

[1] = second compound 0.000949 µM, first compound 0.0316 µM
[2] = second compound 0.000949 µM, first compound 0.1 µM
[3] = second compound 0.000949 µM, first compound 0.316 µM
[4] = second compound 0.000949 µM, first compound 1 µM
[5] = second compound 0.000949 µM, first compound 3.16 µM
[6] = second compound 0.000949 µM, first compound 10 µM
[7] = second compound 0.003 µM, first compound 0.0316 µM
[8] = second compound 0.003 µM, first compound 0.1 µM
[9] = second compound 0.003 µM, first compound 0.316 µM
[10] = second compound 0.003 µM, first compound 1 µM
[11] = second compound 0.003 µM, first compound 3.16 µM
[12] = second compound 0.003 µM, first compound 10 µM
[13] = second compound 0.00949 µM, first compound 0.0316 µM
[14] = second compound 0.00949 µM, first compound 0.1 µM
[15] = second compound 0.00949 µM, first compound 0.316 µM
[16] = second compound 0.00949 µM, first compound 1 µM
[17] = second compound 0.00949 µM, first compound 3.16 µM
[18] = second compound 0.00949 µM, first compound 10 µM
[19] = second compound 0.03 µM, first compound 0.0316 µM
[20] = second compound 0.03 µM, first compound 0.1 µM
[21] = second compound 0.03 µM, first compound 0.316 µM
[22] = second compound 0.03 µM, first compound 1 µM
[23] = second compound 0.03 µM, first compound 3.16 µM
[24] = second compound 0.03 µM, first compound 10 µM
[25] = second compound 0.0949 µM, first compound 0.0316 µM
[26] = second compound 0.0949 µM, first compound 0.1 µM
[27] = second compound 0.0949 µM, first compound 0.316 µM
[28] = second compound 0.0949 µM, first compound 1 µM
[29] = second compound 0.0949 µM, first compound 3.16 µM
[30] = second compound 0.0949 µM, first compound 10 µM
[31] = second compound 0.3 µM, first compound 0.0316 µM
[32] = second compound 0.3 µM, first compound 0.1 µM
[33] = second compound 0.3 µM, first compound 0.316 µM
[34] = second compound 0.3 µM, first compound 1 µM
[35] = second compound 0.3 µM, first compound 3.16 µM
[36] = second compound 0.3 µM, first compound 10 µM
[37] = second compound 0.000949 µM, first compound 0.00316 µM
[38] = second compound 0.000949 µM, first compound 0.01 µM
[39] = second compound 0.003 µM, first compound 0.00316 µM
[40] = second compound 0.003 µM, first compound 0.01 µM
[41] = second compound 0.00949 µM, first compound 0.00316 µM
[42] = second compound 0.00949 µM, first compound 0.01 µM
[43] = second compound 0.03 µM, first compound 0.00316 µM
[44] = second compound 0.03 µM, first compound 0.01 µM
[45] = second compound 0.0949 µM, first compound 0.00316 µM
[46] = second compound 0.0949 µM, first compound 0.01 µM
[47] = second compound 0.3 µM, first compound 0.00316 µM
[48] = second compound 0.3 µM, first compound 0.01 µM
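Also: spheroids exposed to compound for seven days before readout.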
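For IC50 in this document: luminescence signal used as a proxy for viable cells.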

`CC(C)NCC(C(=O)N1CCN(c2ncnc3c2C(C)CC3O)CC1)c1ccc(Cl)cc1` (stereo not drawn) + CCn1c(-c2cccnc2C(C)OC)c2c3cc(ccc31)N1CCOC(CC(NC(=O)C(C(C)C)N(C)C(=O)C3(F)CCN(C(=O)C#CC(C)(C)N(C)C)CC3)C(=O)N3CCCC(N3)C(=O)OCC(C)(C)C2)C1 was tested, and the IC50 (second compound 0.000949 µM) was < 31.6 nM, the IC50 (second compound 0.003 µM) was < 31.6 nM and the IC50 (second compound 0.00949 µM) was < 31.6 nM. The IC50 (second compound 0.03 µM) was < 31.6 nM, the IC50 (second compound 0.0949 µM) was < 31.6 nM and the IC50 (second compound 0.3 µM) was < 31.6 nM. For the same compound, the viability, T/C [1] was 11.2%, the viability, T/C [2] was 13.7% and the viability, T/C [3] was 12.3%. It also gave a viability, T/C [4] of 12.3%, a viability, T/C [5] of 8.16% and a viability, T/C [6] of 8.26%. The viability, T/C [7] was 12.4%, the viability, T/C [8] was 11.7% and the viability, T/C [9] was 11.7%. For the same compound, the viability, T/C [10] was 10.8%, the viability, T/C [11] was 8.33% and the viability, T/C [12] was 7.72%. It also gave a viability, T/C [13] of 11%, a viability, T/C [14] of 11.3% and a viability, T/C [15] of 12.6%. The viability, T/C [16] was 10.1%, the viability, T/C [17] was 8.54% and the viability, T/C [18] was 7.28%. It also gave a viability, T/C [19] of 11.5%, a viability, T/C [20] of 10.2% and a viability, T/C [21] of 12.5%. It also gave a viability, T/C [22] of 8.64%, a viability, T/C [23] of 7.32% and a viability, T/C [24] of 7.5%. For the same compound, the viability, T/C [25] was 9.18%, the viability, T/C [26] was 10.3% and the viability, T/C [27] was 10.3%. For the same compound, the viability, T/C [28] was 8.97%, the viability, T/C [29] was 6.83% and the viability, T/C [30] was 6.43%. The viability, T/C [31] was 8.3%, the viability, T/C [32] was 10.2% and the viability, T/C [33] was 8.96%. It also gave a viability, T/C [34] of 6.59%, a viability, T/C [35] of 6.6% and a viability, T/C [36] of 5.25%.
`CC(C)n1nc(-c2ccc3oc(N)nc3c2)c2c(N)ncnc21` + CCn1c(-c2cccnc2C(C)OC)c2c3cc(ccc31)N1CCOC(CC(NC(=O)C(C(C)C)N(C)C(=O)C3(F)CCN(C(=O)C#CC(C)(C)N(C)C)CC3)C(=O)N3CCCC(N3)C(=O)OCC(C)(C)C2)C1 was tested, and the IC50 (second compound 0.000949 µM) was < 0.316 nM, the IC50 (second compound 0.003 µM) was < 0.316 nM and the IC50 (second compound 0.00949 µM) was < 0.316 nM. For the same compound, the IC50 (second compound 0.03 µM) was < 0.316 nM, the IC50 (second compound 0.0949 µM) was < 0.316 nM and the IC50 (second compound 0.3 µM) was < 0.316 nM. The viability, T/C (second compound 0.000949 µM, first compound 0.000316 µM) was 14.9%, the viability, T/C (second compound 0.000949 µM, first compound 0.001 µM) was 14.4% and the viability, T/C [37] was 12.2%. For the same compound, the viability, T/C [38] was 9.49%, the viability, T/C [1] was 8.53% and the viability, T/C [2] was 14.7%. It also gave a viability, T/C (second compound 0.003 µM, first compound 0.000316 µM) of 15.6%, a viability, T/C (second compound 0.003 µM, first compound 0.001 µM) of 12.4% and a viability, T/C [39] of 12.5%. The viability, T/C [40] was 10.2%, the viability, T/C [7] was 8.31% and the viability, T/C [8] was 13.6%. It also gave a viability, T/C (second compound 0.00949 µM, first compound 0.000316 µM) of 13.3%, a viability, T/C (second compound 0.00949 µM, first compound 0.001 µM) of 13.2% and a viability, T/C [41] of 13.3%. It also gave a viability, T/C [42] of 10.2%, a viability, T/C [13] of 7.68% and a viability, T/C [14] of 12.6%. The viability, T/C (second compound 0.03 µM, first compound 0.000316 µM) was 12%, the viability, T/C (second compound 0.03 µM, first compound 0.001 µM) was 14% and the viability, T/C [43] was 11%. For the same compound, the viability, T/C [44] was 9.46%, the viability, T/C [19] was 7.2% and the viability, T/C [20] was 11.5%. It also gave a viability, T/C (second compound 0.0949 µM, first compound 0.000316 µM) of 11.1%, a viability, T/C (second compound 0.0949 µM, first compound 0.001 µM) of 10.9% and a viability, T/C [45] of 9.2%. The viability, T/C [46] was 7.52%, the viability, T/C [25] was 5.8% and the viability, T/C [26] was 10.4%. It also gave a viability, T/C (second compound 0.3 µM, first compound 0.000316 µM) of 9.46%, a viability, T/C (second compound 0.3 µM, first compound 0.001 µM) of 8.59% and a viability, T/C [47] of 8.57%. For the same compound, the viability, T/C [48] was 7.61%, the viability, T/C [31] was 4.68% and the viability, T/C [32] was 8.47%.
`CC(Nc1ccc2c(c1)OCCn1cc(N3C(=O)OCC3C(F)F)nc1-2)C(N)=O` (stereo not drawn) + CCn1c(-c2cccnc2C(C)OC)c2c3cc(ccc31)N1CCOC(CC(NC(=O)C(C(C)C)N(C)C(=O)C3(F)CCN(C(=O)C#CC(C)(C)N(C)C)CC3)C(=O)N3CCCC(N3)C(=O)OCC(C)(C)C2)C1 was tested, and the IC50 (second compound 0.000949 µM) was < 31.6 nM, the IC50 (second compound 0.003 µM) was < 31.6 nM and the IC50 (second compound 0.00949 µM) was < 31.6 nM. For the same compound, the IC50 (second compound 0.03 µM) was < 31.6 nM, the IC50 (second compound 0.0949 µM) was < 31.6 nM and the IC50 (second compound 0.3 µM) was < 31.6 nM. For the same compound, the viability, T/C [1] was 10.7%, the viability, T/C [2] was 8.72% and the viability, T/C [3] was 8.3%. The viability, T/C [4] was 7.21%, the viability, T/C [5] was 5.43% and the viability, T/C [6] was 4.31%. It also gave a viability, T/C [7] of 9.17%, a viability, T/C [8] of 8.19% and a viability, T/C [9] of 7.67%. It also gave a viability, T/C [10] of 6.15%, a viability, T/C [11] of 6.22% and a viability, T/C [12] of 4.37%. For the same compound, the viability, T/C [13] was 9.41%, the viability, T/C [14] was 8.93% and the viability, T/C [15] was 9.05%. The viability, T/C [16] was 6.09%, the viability, T/C [17] was 5.36% and the viability, T/C [18] was 4.24%. The viability, T/C [19] was 8.43%, the viability, T/C [20] was 7.85% and the viability, T/C [21] was 6.83%. For the same compound, the viability, T/C [22] was 5.59%, the viability, T/C [23] was 4.63% and the viability, T/C [24] was 3.89%. It also gave a viability, T/C [25] of 7.47%, a viability, T/C [26] of 6.11% and a viability, T/C [27] of 5.42%. The viability, T/C [28] was 4.93%, the viability, T/C [29] was 3.8% and the viability, T/C [30] was 2.62%. The viability, T/C [31] was 7.06%, the viability, T/C [32] was 4.74% and the viability, T/C [33] was 5.86%. The viability, T/C [34] was 3.71%, the viability, T/C [35] was 2.8% and the viability, T/C [36] was 1.69%.
For `O=C(c1ccc(F)c(F)c1Nc1ccc(I)cc1F)N1CC(O)([C@@H]2CCCCN2)C1` + CCn1c(-c2cccnc2C(C)OC)c2c3cc(ccc31)N1CCOC(CC(NC(=O)C(C(C)C)N(C)C(=O)C3(F)CCN(C(=O)C#CC(C)(C)N(C)C)CC3)C(=O)N3CCCC(N3)C(=O)OCC(C)(C)C2)C1, the IC50 (second compound 0.000949 µM) was < 3.16 nM, the IC50 (second compound 0.003 µM) was < 3.16 nM and the IC50 (second compound 0.00949 µM) was < 3.16 nM. The IC50 (second compound 0.03 µM) was < 3.16 nM, the IC50 (second compound 0.0949 µM) was < 3.16 nM and the IC50 (second compound 0.3 µM) was < 3.16 nM. The viability, T/C [37] was 13.4%, the viability, T/C [38] was 11.5% and the viability, T/C [1] was 9.69%. For the same compound, the viability, T/C [2] was 6.79%, the viability, T/C [3] was 3.71% and the viability, T/C [4] was 1.41%. For the same compound, the viability, T/C [39] was 12.6%, the viability, T/C [40] was 11.1% and the viability, T/C [7] was 9.13%. It also gave a viability, T/C [8] of 7.29%, a viability, T/C [9] of 3.35% and a viability, T/C [10] of 1.31%. For the same compound, the viability, T/C [41] was 13.7%, the viability, T/C [42] was 11.1% and the viability, T/C [13] was 7.73%. It also gave a viability, T/C [14] of 7.78%, a viability, T/C [15] of 3.51% and a viability, T/C [16] of 1.48%. It also gave a viability, T/C [43] of 10.9%, a viability, T/C [44] of 10.1% and a viability, T/C [19] of 7.96%. It also gave a viability, T/C [20] of 5.76%, a viability, T/C [21] of 3.19% and a viability, T/C [22] of 1%. For the same compound, the viability, T/C [45] was 8.93%, the viability, T/C [46] was 7.87% and the viability, T/C [25] was 7.13%. It also gave a viability, T/C [26] of 4.53%, a viability, T/C [27] of 2.24% and a viability, T/C [28] of 0.97%. The viability, T/C [47] was 7.33%, the viability, T/C [48] was 7.35% and the viability, T/C [31] was 5.27%. For the same compound, the viability, T/C [32] was 3.14%, the viability, T/C [33] was 1.96% and the viability, T/C [34] was 0.65%.
